# Laboratory results: article PMC5836806 (Bioorganic & medicinal chemistry letters, 2018)
# Columns and labels:
# [1] = molecular target: T1, human mPGES-1 (Homo sapiens, UniProt O14684); assay: in vitro inhibition of human mPGES-1; assay type: biochemical; conditions: Table 2
# T1 sequence (O14684 1-152): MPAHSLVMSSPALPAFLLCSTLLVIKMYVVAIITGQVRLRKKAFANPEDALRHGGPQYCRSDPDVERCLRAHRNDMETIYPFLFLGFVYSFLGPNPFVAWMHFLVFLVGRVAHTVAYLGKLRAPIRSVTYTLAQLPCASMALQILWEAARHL
# [2] = test system: COX-1/2 (mixed COX-1 and COX-2); assay: inhibition of mixed COX-1 and COX-2; assay type: biochemical; conditions: summary
smiles,measurement,setting,value
CCCCCCOc1ccc(-c2nn(-c3ccc(Cl)cc3)cc2/C=C(\C#N)C(=O)O)cc1 [14a],activity against human mPGES-1 in words,[1],submicromolar potency
CCOc1ccc(-c2nn(-c3ccc(Cl)cc3)cc2/C=C(\C#N)C(N)=O)cc1 [13c],activity against human mPGES-1 in words,[1],not very active
CCOc1ccc(-c2nn(-c3ccc(Cl)cc3)cc2/C=C(\C#N)C(=O)O)cc1 [13a],activity against human mPGES-1 in words,[1],submicromolar potency
CCCCCCOc1ccc(-c2nn(-c3ccc(Cl)cc3)cc2C=C(C#N)C#N)cc1 [14b],activity against human mPGES-1 in words,[1],not very active
CCCCCCOc1ccc(-c2nn(-c3ccc(Cl)cc3)cc2/C=C2/SC(=O)N(CC(=O)O)C2=O)cc1 [14f],inhibition against COX-1/2 in words,[2],without significant inhibition
CCCCCCOc1ccc(-c2nn(-c3ccc(Cl)cc3)cc2/C=C(\C#N)C(N)=O)cc1 [14c],activity against human mPGES-1 in words,[1],not very active
CCOc1ccc(-c2nn(-c3ccc(Cl)cc3)cc2C=C(C#N)C#N)cc1 [13b],activity against human mPGES-1 in words,[1],not very active
